Measured values: ChEMBL document CHEMBL4613209, “Quinolone hybrids and their anti-cancer activities: An overview” (Eur J Med Chem, 2019)
Values after ≈ are worked out from the molar mass of the structure shown. Values belong to the compound of their own block, whether it stands above or below them.

What was measured:
HeLa [1] = experiment: Cytotoxicity against human HeLa cells assessed as reduction in cell viability after 24 to 72 hrs by MTT assay; format: functional, cell-based
L1210 [2] = experiment: Cytotoxicity against mouse L1210 cells assessed as reduction in cell viability after 24 to 72 hrs by MTT assay; format: functional, cell-based
SMMC-7721 [3] = experiment: Cytotoxicity against human SMMC7721 cells assessed as reduction in cell viability by MTT assay; format: functional, cell-based
L1210 [4] = experiment: Cytotoxicity against mouse L1210 cells assessed as reduction in cell viability by MTT assay; format: functional, cell-based
HL-60 [5] = experiment: Cytotoxicity against human HL60 cells assessed as reduction in cell viability by MTT assay; format: functional, cell-based
CHO = experiment: Cytotoxicity against CHO cells assessed as reduction in cell viability by MTT assay; format: cell-based; details: Cricetulus griseus
PC-3 = experiment: Cytotoxicity against human PC3 cells assessed as reduction in cell viability after 48 hrs by SRB assay; format: functional, cell-based; details: PC-3, 48 h
DU-145 [6] = experiment: Cytotoxicity against human DU145 cells assessed as reduction in cell viability after 48 hrs by SRB assay; format: functional, cell-based; details: DU-145, 48 h
KB = experiment: Cytotoxicity against human KB cells assessed as reduction in cell viability; format: functional; details: read-out: TD50 (the source's name)
L1210 [7] = experiment: Cytotoxicity against mouse L1210 cells assessed as reduction in cell viability; format: functional, cell-based
[8] = Cytotoxicity against human SW403 cells assessed as reduction in cell viability; format: functional; details: SW-403, read-out: TD50 (the source's name)
MCF7 [9] = experiment: Cytotoxicity against human MCF7 cells assessed as reduction in cell viability; format: functional, cell-based; details: read-out: TD50 (the source's name)
OVCAR-3 = experiment: Cytotoxicity against human OVCAR3 cells assessed as reduction in cell viability; format: functional; details: read-out: TD50 (the source's name)
HL-60 [10] = experiment: Cytotoxicity against human HL60 cells assessed as reduction in cell viability; format: functional, cell-based
HCT-116 [11] = experiment: Cytotoxicity against human HCT116 cells assessed as reduction in cell viability by SRB assay; format: functional, cell-based
Hep 3B2 [12] = experiment: Cytotoxicity against human Hep3B cells assessed as reduction in cell viability by MTT assay; format: functional, cell-based
CAPAN-1 [13] = experiment: Cytotoxicity against human Capan1 cells assessed as reduction in cell viability by MTT assay; format: functional, cell-based
CAPAN-1 [14] = experiment: Cytotoxicity against human Capan1 cells assessed as reduction in cell viability; format: functional, cell-based
Hep 3B2 [15] = experiment: Cytotoxicity against human Hep3B cells assessed as reduction in cell viability; format: functional, cell-based
HCT-8 = experiment: Antiproliferative activity against human HCT8 cells after 48 hrs by MTT assay; format: functional, cell-based; details: HCT-8, 48 h
SMMC-7721 [16] = experiment: Cytotoxicity against human SMMC7721 cells assessed as reduction in cell viability; format: functional, cell-based
SMMC-7721 [17] = experiment: Antiproliferative activity against human SMMC7721 cells after 24 to 72 hrs by MTT assay; format: functional, cell-based
L1210 [18] = experiment: Antiproliferative activity against mouse L1210 cells after 24 to 72 hrs by MTT assay; format: functional, cell-based
HL-60 [19] = experiment: Antiproliferative activity against human HL60 cells after 24 to 72 hrs by MTT assay; format: functional, cell-based
SMMC-7721 [20] = experiment: Antiproliferative activity against human SMMC7721 cells by MTT assay; format: functional, cell-based
L1210 [21] = experiment: Antiproliferative activity against mouse L1210 cells by MTT assay; format: functional, cell-based
[22] = Toxicity in mouse xenografted with human CX-1 cells; details: in vivo
[23] = Toxicity in mouse xenografted with human MB-9812 cells
HepG2 [24] = experiment: Cytotoxicity against human HepG2 cells assessed as reduction in cell viability after 48 hrs by MTT assay; format: functional, cell-based; details: HepG2, 48 h
[25] = Cytotoxicity against human MGC832 cells assessed as reduction in cell viability after 48 hrs by MTT assay; format: functional, cell-based
PANC-1 [26] = experiment: Potency index, ratio of IC50 for etoposide to IC50 for test compound for anticancer activity against human PANC1 cells after 48 hrs by SRB assay; format: functional
A549 [27] = experiment: Potency index, ratio of IC50 for etoposide to IC50 for test compound for anticancer activity against human A549 cells after 48 hrs by SRB assay; format: functional
HCT-116 [28] = experiment: Potency index, ratio of IC50 for etoposide to IC50 for test compound for anticancer activity against human HCT116 cells after 48 hrs by SRB assay; format: functional
MCF7-DOX [29] = experiment: Anticancer activity against human MCF7/Dox cells after 48 hrs by SRB assay; format: functional, cell-based
HL-60 [30] = experiment: Potency index, ratio of IC50 for etoposide to IC50 for test compound for anticancer activity against human HL60 cells after 48 hrs by SRB assay; format: functional
MCF7 [31] = experiment: Anticancer activity against human MCF7 cells after 48 hrs by SRB assay; format: functional, cell-based; details: MCF7, 48 h
SK-OV-3 [32] = experiment: Anticancer activity against human SKOV3 cells after 48 hrs by SRB assay; format: functional, cell-based; details: SK-OV-3, 48 h
PANC-1 [33] = experiment: Anticancer activity against human PANC1 cells after 48 hrs by SRB assay; format: functional, cell-based; details: PANC-1, 48 h
HeLa [34] = experiment: Anticancer activity against human HeLa cells after 48 hrs by SRB assay; format: functional, cell-based
HL-60 [35] = experiment: Anticancer activity against human HL60 cells after 48 hrs by SRB assay; format: functional, cell-based; details: HL-60, 48 h
HepG2 [36] = experiment: Anticancer activity against human HepG2 cells after 48 hrs by SRB assay; format: functional, cell-based; details: HepG2, 48 h
DU-145 [37] = experiment: Anticancer activity against human DU145 cells after 48 hrs by SRB assay; format: functional, cell-based; details: DU-145, 48 h
A549 [38] = experiment: Anticancer activity against human A549 cells after 48 hrs by SRB assay; format: functional, cell-based; details: A549, 48 h
HCT-116 [39] = experiment: Anticancer activity against human HCT116 cells after 48 hrs by SRB assay; format: functional, cell-based; details: HCT-116, 48 h
HeLa [40] = experiment: Potency index, ratio of IC50 for etoposide to IC50 for test compound for anticancer activity against human HeLa cells after 48 hrs by SRB assay; format: functional
DU-145 [41] = experiment: Potency index, ratio of IC50 for etoposide to IC50 for test compound for anticancer activity against human DU145 cells after 48 hrs by SRB assay; format: functional
SK-OV-3 [42] = experiment: Potency index, ratio of IC50 for etoposide to IC50 for test compound for anticancer activity against human SKOV3 cells after 48 hrs by SRB assay; format: functional
MCF7 [43] = experiment: Potency index, ratio of IC50 for etoposide to IC50 for test compound for anticancer activity against human MCF7 cells after 48 hrs by SRB assay; format: functional
MCF7-DOX [44] = experiment: Potency index, ratio of IC50 for etoposide to IC50 for test compound for anticancer activity against human MCF7/Dox cells after 48 hrs by SRB assay; format: functional

Structure (SMILES): CCOC(=O)c1cn(CC)c2c(ccc3n[se]nc32)c1=O
IC50 (HeLa [1]): ≤ 100000 nM
IC50 (L1210 [2]): ≤ 100000 nM

Structure (SMILES): COc1ccc(-c2nnc(CSc3nnc(-c4cn(C5CC5)c5cc(N6CCN(C)CC6)c(F)cc5c4=O)o3)o2)cc1
IC50 (SMMC-7721 [3]): 1100 to 2800 nM
IC50 (L1210 [4]): 1100 to 2800 nM
IC50 (HL-60 [5]): 1100 to 2800 nM
IC50 (CHO): 1100 to 2800 nM

Structure (SMILES): COc1cccc2c1C(=O)c1c(O)c3c(c(O)c1C2=O)C[C@@](O)(C(=O)CO)C[C@@H]3O[C@H]1C[C@H](N)[C@H](O)[C@H](C)O1 [DOXORUBICIN]
IC50 (PC-3): 0.4 µg/mL (≈ 0.736 µM)
IC50 (DU-145 [6]): 0.4 µg/mL (≈ 0.736 µM)
IC50 (SMMC-7721 [3]): 1200 to 2600 nM
CC50 (KB): 0.014 to 0.098 µg/mL (≈ 0.0258 to 0.18 µM)
IC50 (L1210 [7]): 1600 to 3000 nM
CC50 [8]: 0.014 to 0.098 µg/mL (≈ 0.0258 to 0.18 µM)
CC50 (MCF7 [9]): 0.014 to 0.098 µg/mL (≈ 0.0258 to 0.18 µM)
CC50 (OVCAR-3): 0.014 to 0.098 µg/mL (≈ 0.0258 to 0.18 µM)
IC50 (HL-60 [10]): 3500 nM
IC50 (HCT-116 [11]): 8.8 nM
IC50 (L1210 [4]): 1200 to 2600 nM
IC50 (HL-60 [5]): 1200 to 2600 nM
IC50 (Hep 3B2 [12]): 1800 to 3500 nM
IC50 (CAPAN-1 [13]): 1800 to 3500 nM
IC50 (CAPAN-1 [14]): 1700 nM
IC50 (Hep 3B2 [15]): 2600 nM
IC50 (HCT-8): 7200 nM
IC50 (SMMC-7721 [16]): 1600 to 3000 nM
IC50 (SMMC-7721 [17]): 2500 nM
IC50 (L1210 [18]): 1700 nM
IC50 (HL-60 [19]): 3600 nM
IC50 (SMMC-7721 [20]): 2300 nM
IC50 (L1210 [21]): 4200 nM
LD50 [22]: 11 mg/kg
LD50 [23]: 11 mg/kg

Structure (SMILES): O=C(O)c1c(-c2ccc[nH]2)[nH]c2ccccc2c1=O [PENICINOLINE]
IC50 (HepG2 [24]): 7 nM
IC50 [25]: 91 nM

IC50 (MCF7-DOX [29]): 500 to 6250 nM
IC50 (MCF7 [31]): 500 to 6250 nM
IC50 (SK-OV-3 [32]): 500 to 6250 nM
IC50 (PANC-1 [33]): 500 to 6250 nM
IC50 (HeLa [34]): 500 to 6250 nM
IC50 (HL-60 [35]): 500 to 6250 nM
IC50 (HepG2 [36]): 500 to 6250 nM
IC50 (DU-145 [37]): 500 to 6250 nM
IC50 (A549 [38]): 500 to 6250 nM
IC50 (HCT-116 [39]): 500 to 6250 nM
Structure (SMILES): CC1(CN)CN(c2ccc3c(=O)c(C(=O)O)cn(-c4nccs4)c3n2)C/C1=N/OCc1ccccc1 (configuration not stated)
Ratio IC50 (PANC-1 [26]): >=1.3 - 100
Ratio IC50 (A549 [27]): >=1.3 - 100
Ratio IC50 (HCT-116 [28]): >=1.3 - 100
Ratio IC50 (HL-60 [30]): >=1.3 - 100
Ratio IC50 (HeLa [40]): >=1.3 - 100
Ratio IC50 (DU-145 [41]): >=1.3 - 100
Ratio IC50 (SK-OV-3 [42]): >=1.3 - 100
Ratio IC50 (MCF7 [43]): >=1.3 - 100
Ratio IC50 (MCF7-DOX [44]): >=1.3 - 100
